Marks after values point to notes of the source that are not given here.
System: not listed separately
Test: Thermal stability of compounds at 60° C. (HPLC content of raw material and 2% premix)
Type: physicochemical
Conditions: 2% premix, Day 5, relative to Day 0
Experimental: The variations of the contents of the main ingredient of the aspartic acid derivative raw material and the main ingredient of a premix containing 2% mass fraction of the aspartic acid derivative (hereinafter referred to as 2% premix) over time were investigated under the conditions of stability test at 60° C.
Experimental apparatus: drug stability incubator, Waters high-performance liquid chromatograph (HPLC), etc.
Test samples: N-carbamoyl-DL-aspartic acid (compound 1), diethyl N-carbamoyl-DL-aspartate (compound 2), Sodium N-carbamoyl-DL-aspartate (compound 3), Calcium N-carbamoyl-DL-aspartate (compound 4), Zinc N-carbamoyl-DL-aspartate (compound 5), Copper N-carbamoyl-DL-aspartate (compound 6), Iron N-carbamoyl-DL-aspartate (compound 7), N-glycyl-DL-aspartic acid (compound 8), N-(4-aminobutyryl)-DL-aspartic acid (compound 9), N-(10-aminodecanoyl)-DL-aspartic acid (compound 10), N-(14-aminomyristoyl)-DL-aspartic acid (compound 11).
Preparation of standard solution: 50 mg of the test sample raw material was ultrasonically dissolved in 50 mL of water to obtain a working reserve solution. An appropriate amount of the working reserve solution was taken and diluted with water respectively to concentrations of 125 ppm, 250 ppm, 500 ppm, and 1000 ppm for HPLC testing. It was checked whether the sample concentrations are in a linear relationship with the peak area response values in HPLC, and a standard curve was established.
Preparation of test solution: An appropriate amount of the test sample raw material and an appropriate amount of a premix containing 2% mass fraction of the test sample (hereinafter referred to as 2% premix) were separately ultrasonically dissolved in an appropriate amount of water to form a 1000 ppm solution, which is filtered through a 0.22 µm filter membrane and then analyzed by HPLC.
HPLC analysis conditions: chromatographic column: Waters C18 column (250 mm×4.6 mm, 5 μm); mobile phase: 0.05% phosphoric acid:methanol=95:5 (v:v) (raw material); 0.05% phosphoric acid: methanol (gradient elution); methanol: 5%→40% (0-15 min) curve 6, 40%→5% (15-16 min) curve 1, 5% (16-23 min) curve 1, (premix, feed); detection wavelength: 210 nm; column temperature: 25° C.; sample size: 20 μL; flow rate: 1 mL/min.
Test method: The test sample raw material and its 2% premix were placed in a culture plate, spread into a thin layer of <5 mm, and placed at 60° C. Samples were taken on the day 5 and ? day 10 for HPLC detection. Each sample was sampled three times in parallel.

SMILES	Detection result of the content of test sample (%) Day 5
NC(=O)NC(CC(=O)O)C(=O)O (racemic) [Compound 1, N-carbamoyl-DL-aspartic acid]	99.66%
CCOC(=O)CC(NC(N)=O)C(=O)OCC (racemic) [Compound 2, diethyl N-carbamoyl-DL-aspartate]	98.81%
NCC(=O)NC(CC(=O)O)C(=O)O (racemic) [Compound 8, N-glycyl-DL-aspartic acid]	98.57%
NCCCC(=O)NC(CC(=O)O)C(=O)O (racemic) [Compound 9, N-(4-aminobutyryl)-DL-aspartic acid]	99.41%
NCCCCCCCCCC(=O)NC(CC(=O)O)C(=O)O (racemic) [Compound 10, N-(10-aminodecanoyl)-DL-aspartic acid]	98.55%
NCCCCCCCCCCCCCC(=O)NC(CC(=O)O)C(=O)O (racemic) [Compound 11, N-(14-aminomyristoyl)-DL-aspartic acid]	98.22%

Same assay, conditions: 2% premix, Day 10, relative to Day 0

SMILES	Detection result of the content of test sample (%) Day 10
NC(=O)NC(CC(=O)O)C(=O)O (racemic) [Compound 1, N-carbamoyl-DL-aspartic acid]	99.70%
CCOC(=O)CC(NC(N)=O)C(=O)OCC (racemic) [Compound 2, diethyl N-carbamoyl-DL-aspartate]	98.09%
NCC(=O)NC(CC(=O)O)C(=O)O (racemic) [Compound 8, N-glycyl-DL-aspartic acid]	97.32%
NCCCC(=O)NC(CC(=O)O)C(=O)O (racemic) [Compound 9, N-(4-aminobutyryl)-DL-aspartic acid]	97.68%
NCCCCCCCCCC(=O)NC(CC(=O)O)C(=O)O (racemic) [Compound 10, N-(10-aminodecanoyl)-DL-aspartic acid]	97.81%
NCCCCCCCCCCCCCC(=O)NC(CC(=O)O)C(=O)O (racemic) [Compound 11, N-(14-aminomyristoyl)-DL-aspartic acid]	97.80%

Same assay, conditions: Raw material, Day 5, relative to Day 0

SMILES	Detection result of the content of test sample (%) Day 5
NC(=O)NC(CC(=O)O)C(=O)O (racemic) [Compound 1, N-carbamoyl-DL-aspartic acid]	99.79%
CCOC(=O)CC(NC(N)=O)C(=O)OCC (racemic) [Compound 2, diethyl N-carbamoyl-DL-aspartate]	97.32%
NCC(=O)NC(CC(=O)O)C(=O)O (racemic) [Compound 8, N-glycyl-DL-aspartic acid]	99.78%
NCCCC(=O)NC(CC(=O)O)C(=O)O (racemic) [Compound 9, N-(4-aminobutyryl)-DL-aspartic acid]	98.46%
NCCCCCCCCCC(=O)NC(CC(=O)O)C(=O)O (racemic) [Compound 10, N-(10-aminodecanoyl)-DL-aspartic acid]	99.00%
NCCCCCCCCCCCCCC(=O)NC(CC(=O)O)C(=O)O (racemic) [Compound 11, N-(14-aminomyristoyl)-DL-aspartic acid]	97.61%

Same assay, conditions: Raw material, Day 10, relative to Day 0

SMILES	Detection result of the content of test sample (%) Day 10
NC(=O)NC(CC(=O)O)C(=O)O (racemic) [Compound 1, N-carbamoyl-DL-aspartic acid]	99.28%
CCOC(=O)CC(NC(N)=O)C(=O)OCC (racemic) [Compound 2, diethyl N-carbamoyl-DL-aspartate]	96.97%
NCC(=O)NC(CC(=O)O)C(=O)O (racemic) [Compound 8, N-glycyl-DL-aspartic acid]	98.02%
NCCCC(=O)NC(CC(=O)O)C(=O)O (racemic) [Compound 9, N-(4-aminobutyryl)-DL-aspartic acid]	98.09%
NCCCCCCCCCC(=O)NC(CC(=O)O)C(=O)O (racemic) [Compound 10, N-(10-aminodecanoyl)-DL-aspartic acid]	96.73%
NCCCCCCCCCCCCCC(=O)NC(CC(=O)O)C(=O)O (racemic) [Compound 11, N-(14-aminomyristoyl)-DL-aspartic acid]	95.93%

System: weaned piglets
Test: Breeding test: production performance of weaned piglets
Type: in vivo, Duroc×Landrace×Yorkshire cross-bred weaned piglets
Conditions: compared with the control group; not significant
Text: From 95 litters of 28±2 days old Duroc×Landrace×Yorkshire cross-bred weaned piglets, 360 clinically healthy piglets with similar body weights were selected as test pigs, which were randomly divided into 12 groups, with 3 replications per group and 10 pigs (half of male and female) per replication. The piglets were attracted to the food trough at the age of 7 days, and the hog house for 28-day-old weaned pigs has a cement floor, steel fence, good ventilation, and suitable temperature. The pigpens and utensils were sterilized before the test.
During the test period, the test pigs were free-stall housed in the same pigpen under the same feeding and management conditions, and were free to drink water and eat feed. The hog house was cleaned once a day, and the floor is washed once every three days to maintain clean and hygienic conditions. The test pigs were fed three times a day. The test groups include control and test groups. Group I is the control group, in which only the basal daily ration was fed to the piglets. […] 1000 ppm of a the aspartic acid derivative metal ion salt was added into the basal daily ration for the piglets in the groups VIII-XII, as shown in Table 2. No other antioxidant ingredients or growth promoters were added for the test groups during the entire feeding process. The test period was 40 days.
The test pigs were weighed during 7:00 to 9:00 in the morning of Day 0 and Day 40 after the start of the test. During the test period, the feed intake and health status of the piglets were observed every day, the remaining daily ration was weighed, the feed consumption was recorded, and the average daily feed intake (ADFI, g/d*each pig), the average daily gain (ADG, g/d*each pig), and the feed conversion ratio (FCR) were calculated. Calculation formulas are as follows: […]
The test data was statistically analyzed using SPSS18 software. First, a one-way analysis of variance (ANOVA) was performed on the data. If the difference between treatments is significant, Duncan's method was used for multiple comparisons, and the significance level was 0.05.

SMILES	increase of the average daily gain of the test pigs
NC(=O)NC(CC(=O)O)C(=O)O (racemic) [Compound 1, N-carbamoyl-DL-aspartic acid]	7.0%
NCC(=O)NC(CC(=O)O)C(=O)O (racemic) [Compound 8, N-glycyl-DL-aspartic acid]	5.2%
NCCCC(=O)NC(CC(=O)O)C(=O)O (racemic) [Compound 9, N-(4-aminobutyryl)-DL-aspartic acid]	8.1%

Same assay, conditions: weaned piglets, 45 ppm in basal daily ration, 40 days

SMILES	ADFI (g/d*each pig)	ADG (g/d*each pig)	FCR
NC(=O)NC(CC(=O)O)C(=O)O (racemic) [Compound 1, N-carbamoyl-DL-aspartic acid]	315 ± 14^a g/d*each pig	145 ± 10^abc g/d*each pig	2.18 ± 0.05
CCOC(=O)CC(NC(N)=O)C(=O)OCC (racemic) [Compound 2, diethyl N-carbamoyl-DL-aspartate]	374 ± 11^b g/d*each pig	176 ± 2^d g/d*each pig	2.13 ± 0.05
NCC(=O)NC(CC(=O)O)C(=O)O (racemic) [Compound 8, N-glycyl-DL-aspartic acid]	305 ± 12^a g/d*each pig	142 ± 1^ab g/d*each pig	2.15 ± 0.07
NCCCC(=O)NC(CC(=O)O)C(=O)O (racemic) [Compound 9, N-(4-aminobutyryl)-DL-aspartic acid]	311 ± 18^a g/d*each pig	146 ± 4^abc g/d*each pig	2.13 ± 0.06
NCCCCCCCCCC(=O)NC(CC(=O)O)C(=O)O (racemic) [Compound 10, N-(10-aminodecanoyl)-DL-aspartic acid]	321 ± 7^a g/d*each pig	150 ± 1^bc g/d*each pig	2.14 ± 0.06
NCCCCCCCCCCCCCC(=O)NC(CC(=O)O)C(=O)O (racemic) [Compound 11, N-(14-aminomyristoyl)-DL-aspartic acid]	322 ± 16^a g/d*each pig	150 ± 4^bc g/d*each pig	2.14 ± 0.05

System: grass carps
Test: Use of aspartic acid derivatives in feeds for fish (grass carp breeding test)
Type: in vivo
Conditions: 3000 ppm, compared with the control group
Experimental: Test fish: The test fishes used were healthy and lively grass carp fingerlings with uniform size, which were fed in large cages for 4 weeks before being used for formal breeding test. The experimental system was a small floating cage (specification: 1.1×1.1×1.1 m^3), each small floating cage being equipped with an aeration head, providing aeration 24 h a day. Both the small floating cage and the temporary cage were placed in a 3500 m^2 pond of the test field, the depth of the pond was about 1.5 m, and the water of the pond was fully aerated in the bottom of the pond. 560 grass carps that were hungry for 1 day were randomly divided into 7 groups, with 4 replications per group and 20 grass carps per replication. By taking each replication as a unit, all of the grass carps were weighed, and then placed in 28 cages and fed with test feeds containing different test samples at the same content level.
Test feeds: The feeds for the test were self-prepared based on the formulations in Table 6, and different test samples were added at the same content level for different test groups according to Table 7, respectively.
The feed raw materials used were ground by ultrafine grinding and fed into a puffing machine produced by Jiangsu Muyang Group Co., Ltd. to make 3 mm floating puffed feed, where the mold clearing temperature was 130° C., 3% soybean oil was sprayed using an oil spraying equipment, and the obtained feed was sealed and stored in a cool place for later use.
Test management: The test adopted controlled artificial feeding, and the feeding amount was adjusted once a week. The feeding levels for all the groups (based on the initial fish weight) were exactly the same, and the grass carps were fed twice a day (7:30 and 15:00). The total feeding amount was 580 g/replication test group. The test period was 8 weeks. During the test, the water quality was regularly monitored. The water temperature during the whole breeding process was 26.88±3.08° C., DO>5.0 mg O L^−1, pH 7.8, ammonia nitrogen<0.50 mg N L^−1, nitrite nitrogen<0.05 mg N L^−1.
Parameter statistics: During the test, after the provisioning of feeds has been stopped for 1 day, fishes in each cage were weighed as a whole, and the weight gain (WG, %) and the feed conversion ratio (FCR) were calculated. Calculation formulas are as follows:
[formula] [formula] (3) Test Results

SMILES	effect on weight gain of grass carps (in words)
CCOC(=O)CC(NC(N)=O)C(=O)OCC (racemic) [Compound 2, diethyl N-carbamoyl-DL-aspartate]	significant improvement effect
NCC(=O)NC(CC(=O)O)C(=O)O (racemic) [Compound 8, N-glycyl-DL-aspartic acid]	significant improvement effect

Same assay, conditions: grass carps, 3000 ppm in feed, 8 weeks

SMILES	Average final weight (g)	FCR	Weight gain (%)
NC(=O)NC(CC(=O)O)C(=O)O (racemic) [Compound 1, N-carbamoyl-DL-aspartic acid]	774.5 ± 4.8^b g	1.650 ± 0.011^b	83.19 ± 1.41^b %
CCOC(=O)CC(NC(N)=O)C(=O)OCC (racemic) [Compound 2, diethyl N-carbamoyl-DL-aspartate]	772.0 ± 6.3^b g	1.650 ± 0.008^b	83.74 ± 1.53^b %
NCC(=O)NC(CC(=O)O)C(=O)O (racemic) [Compound 8, N-glycyl-DL-aspartic acid]	778.2 ± 4.3^b g	1.671 ± 0.008^b	80.62 ± 1.46%
NCCCC(=O)NC(CC(=O)O)C(=O)O (racemic) [Compound 9, N-(4-aminobutyryl)-DL-aspartic acid]	781.8 ± 4.4^b g	1.662 ± 0.008^b	80.76 ± 1.52%
NCCCCCCCCCC(=O)NC(CC(=O)O)C(=O)O (racemic) [Compound 10, N-(10-aminodecanoyl)-DL-aspartic acid]	781.0 ± 5.1^b g	1.653 ± 0.009^b	81.58 ± 0.96%
NCCCCCCCCCCCCCC(=O)NC(CC(=O)O)C(=O)O (racemic) [Compound 11, N-(14-aminomyristoyl)-DL-aspartic acid]	769.2 ± 4.5^ab g	1.671 ± 0.008^b	82.32 ± 1.24%
